Test results taken from patent publication US5773424A, “Treatment of toxoplasmosis” (priority 1994, dated 1998).
Entries after “also recorded” stand apart in the source; their conditions may differ. Read-outs that look alike come from different tables or passages of the source.

Columns and labels:
[1] = test system: extracts of Toxoplasma gondii; conditions: 50 µM; for Percent conversion of NBMPR to NBMP: t. gondii extract; for Percent conversion of NBMPR to NBMPR-P / Percent conversion of NBMPR to nucleobase (NBMP): toxoplasma gondii
Experimental: (§2) Preparation of extracts. Extracts of T. gondii were prepared by homogenizing parasites or tissues in ice cold (3:1, v/w) 50 mM Tris-Cl buffer (pH 7.4) containing 1 mM EDTA, 1 mM dithiothreitol with a polytron homogenizer (Brinkmann, Westbury, N.Y.) and the homogenates were centrifuged at 105,000×g for 1 hour at 4° C. The supernatant fluids (cytosol) were collected and used as the enzyme source.
(§3) Conversion assays. To measure the percent conversion of NBMPR to NBMPR-P and nucleobase (NBMP) by extracts of Toxoplasma gondii and mouse spleen, 50 mM Tris-Cl (pH 7.4), 5 mM MgCl2, 2.5 mM ATP, 5 mM creatine phosphate, creatine phosphokinase, 50 μM [^3 H-(G)] NBMPR (1.95 μCi/nmol), and 10 μl of cytosol extract were reacted in a final volume of 20 μl and incubated at 37° C. Reaction was initiated by addition of extract and terminated by boiling for 3 minutes. In a second reaction, 25 mM KCN was added to the reaction mixture.
(§4) The plates for the assays of NBMPR were developed in n-butanol/ethyl acetate/NH4 /methanol (49:28:28:21, v/v/v/v). The Rf values were: NBMPR, 0.76; NBMPR-P, 0.50; NBMP, 0.89. The amounts of radioactivity in the substrate (nucleoside) and product (nucleobase and nucleotides) were calculated on a percentage basis using a Berthold LB-284 Automatic TLC-Linear Analyzer.

[2] = test system: Toxoplasma gondii grown in human fibroblasts; assay: Plaque formation in human fibroblasts; assay type: cell-based; conditions: control (0 μM) 21 ± 3.5
From the text: To investigate the effect of metabolizing NBMPR on the survival of T. gondii, the number and size of plaque formation by T. gondii on human fibroblasts was investigated. NBMPR decreased the number and size of toxoplasma in human fibroblasts (Table 13).

[3] = test system: extracts from different strains of Toxoplasma; assay: Conversion of NBMPR to NBMPR-P in the presence of ATP or PRPP by extracts of different strains; assay type: biochemical, Toxoplasma gondii
Experimental: Maintenance of T. gondii. The wild type RH, the adenosine kinase deficient mutant ara-A^R (R), and the phosphoribosyltransferase deficient mutants (HGPRT^- and Tnx^R-1) strains of T. gondii were propagated by intraperitoneal passage in female CD1 mice (20-25 g). Mice were injected intraperitoneally (i.p.) with an inoculum (10^6 cells) of T. gondii contained in 0.2 ml of sterile phosphate buffered saline (PBS), pH 7.2, and were sacrificed after 2-3 days by inhalation of ether. The parasites were harvested from the peritoneal cavity by injection, aspiration and reinjection of 3-5 mL of PBS (2-3 times). The peritoneal fluid was examined microscopically to determine the concentration of T. gondii and to ascertain the extent of contamination by host cells.
Enzyme assay. […] Incubation was carried out at 37° C.
Phosphoribosyltransferase activity was measured by following the formation of [^3 H] NMMPR-P from [^3 H] NBMPR and 5-phosphoribosyl-1-pyrophosphate (PRPP). The standard reaction mixtures contained 50 mM Tris-Cl (pH 7.4), 10 μM [^3 H] NBMPR (55 Ci/mol), 4 mM PRibPP, 20 mM MgCl2, 50 mM KCI, and 50 μl of enzyme extract (4-8 μg of protein) in a final volume of 100 μl. Reactions were incubated at 37° C. and terminated in boiling water bath for 2 minutes. Precipitated proteins were removed by centrifugation. A 10 μl aliquot of the resulting supernatant was spotted on cellulose thin layer chromatography plates which were developed with 5% dibasic potassium phosphate. The average Rf values were as follows: NBMPR, 0.28; NBMP, 0.16; NBMPR-P, 0.44. The radioactivity was quantified using a Berthold TLC Linear Analyzer (Wallac, Inc., Gaithersburg, Md.). All assays were run under conditions in which velocity was linear with respect to time and amount of enzyme extract. Enzyme velocity was calculated by multiplying the fraction of nucleotide formed from nucleoside by the amount of nucleoside in the assay divided by the incubation time. Specific activity was estimated by dividing enzyme velocity by the amount of protein in the assay.

[4] = test system: extracts of mouse spleen; conditions: spleen cytosol extract, 50 µM
Experimental: as §2, §3, §4

[5] = Toxicity of compounds, MTT assay; assay type: cell-based, human; conditions: human, foreskin fibroblasts
Experimental: (§1) Toxicity of compounds. Toxicity of the different doses of the various analogues were performed at least in triplicates, using a modification of the Microculture Tetrazolium (MTT) assay and uninfected monolayers of human foreskin fibroblasts. Briefly, confluent cells were incubated for at least 24 hours in the 96-well flat bottom microtiterplates (~10^5 /200 μL/well) and incubated at 37° C. in 5% CO2, 95% air to allow the cells to attach. The medium was then replaced with 200 μL of fresh medium. […] The cultures were then incubated for 48 hours, after which 50 μL of sterile MTT solution (2 mg/1 mL PBS) was added to each well. MTT solution was sterilized by filtration through 0.22 μm filters (Costar, Cambridge, Mass.). After 4 hours incubation, the medium was removed and 100 μL of dimethylsulfoxide (DMSO) was added to each well and the plates were shaken gently for 2-3 minutes to dissolve the formed formazan crystals. The absorbance was measured at 540 nm, using a computerized microtiterplate reader (Themomax, Molecular Division)

[6] = test system: Toxoplasma gondii grown in human fibroblasts; assay: Incorporation of radiolabeled uracil (parasite survival); assay type: cell-based; conditions: for activity at 5 µM / activity at 10 µM / activity at 25 µM / activity at 50 µM: Toxoplasma gondii, Fibroblast, [5,6-3H]uracil incorporation, read-out: percent survival of Toxoplasma gondii grown in human fibroblasts
Experimental: Incorporation of Radiolabeled Uracil. […] Uptake and incorporation of radiolabeled uracil into nucleic acids of T. gondii were carried out, at least in triplicates, in tissue culture, using monolayers of human foreskin fibroblasts infected with T. gondii. The fibroblasts were cultured in no more than 30 passages in Dulbecco's modified Eagle medium, containing 100 units/mL penicillin G and 100 μg/mL streptomycin sulfate, and 10% FBS, pH 7.2. Briefly, confluent cells (4-5 day incubation) were cultured for 24 hours in the 24-well flat bottom microtiterplates (~5×10^5 /1 mL/well) and incubated at 37° C. in 5% CO2, 95% air to allow the cells to attach. The medium was then removed and the cells were infected with isolated T. gondii in medium with 3% FBS (1 parasite/cell). After 1 hour incubation, the cultures were washed with media with 10% FBS to remove extracellular parasites. FBS was maintained at a final concentration of 10%. […] After an additional 18 hours incubation, the medium was replaced with 1 mL drug free media containing […] (2 μCi/mL) and incubated for another 6 hours, after which the media was removed. The fibroblasts were released from the wells by trypsinization with the addition of 200 μL trypsin/EDTA (2.5×) to each well. After 10 minutes incubation, 1 mL of ice cold 10% trichloroacetic acid (TCA) was added to each well. The plates were then placed on a shaker to insure the detachment of the cells. The suspended contents of each well were filtered through GF/A 2.4 cm glass microfiber filters (Whatman, Hillsboro, Oreg.), which were prewashed each with 1 mL double distilled H2 O and dried. After filtration, the filters were washed with 10 mL methanol, left to dry, and then placed in scintillation vials containing 5 mL of Econo-Safe scintillation fluor (Research Products International Corp., Mount Prospect, Ill.), and radioactivity was counted using an LS5801 Beckman scintillation counter.

[7] = test system: Toxoplasma gondii RH strain tachyzoites; assay: Chemotherapy of Toxoplasma-infected mice; assay type: in vivo
Experimental: Chemotherapy of Toxoplasma-Infected Mice. Female CD-1 mice, approximately 22 g (Charles River Laboratories, Wilmington, Mass.), were infected with 200 RH strain tachyzoites/mouse by i.p. injection. The treatment group received 100 mg/kg NBMPR-P i.p. injections every 8 hours on Days 0, 2, 4 and 5, in proportion of 0.1 ml/10 g. Mice were maintained under controlled temperature (25° C.) and light (12/12 hours, light/dark), food and water ad libitum, and survival was monitored daily.
Each mouse was infected with 200 tachyzoites and the treatment group received 100 mg/kg NBMPR-P i.p. injections every 8 hours on Days 0, 2, 4 and 5 in proportion of 0.1 ml/10 g. The survivorship of the treated mice can be improved by manipulation of the dose and regimen of NBMPR.

[8] = test system: uninfected human foreskin fibroblasts; assay: Toxicity of compounds, MTT assay; assay type: cell-based
Experimental: as §1

[9] = survivors/total, 100 mg/kg i.p. every 8 hours on Days 0, 2, 4 and 5

In the case of `O=[N+]([O-])c1ccc(CSc2ncnc3c2ncn3[C@@H]2O[C@H](CO)[C@@H](O)[C@H]2O)cc1` [Compound 21, 6-(p-Nitrobenzyl)mercaptopurine riboside (NBMPR)], the “Percent conversion of NBMPR to NBMP” value ([1]; 0.25 h) is reported as 0.9 ± 0.3%, the “Percent conversion of NBMPR to NBMP” value ([1]; 0.5 h) is reported as 2.8 ± 3.8% and the “Percent conversion of NBMPR to NBMP” value ([1]; 1 h) is reported as 4.0 ± 1.3%. The “Percent conversion of NBMPR to NBMP” value ([1]; 2 h) was 9.5 ± 1.3%, the “Percent conversion of NBMPR to NBMP” value ([1]; 4 h) was 14.3 ± 3.3% and the “Percent conversion of NBMPR to NBMPR-P” value ([1]; cytosol extract with kcn, 0.25 h) was 0.5 ± 0.1%. The “Percent conversion of NBMPR to NBMPR-P” value ([1]; cytosol extract with kcn, 0.5 h) was 1.1 ± 0.1%, the “Percent conversion of NBMPR to NBMPR-P” value ([1]; cytosol extract with kcn, 1 h) was 3.7 ± 2.5% and the “Percent conversion of NBMPR to NBMPR-P” value ([1]; cytosol extract with kcn, 2 h) was 5.8 ± 0.7%. For the same compound, the “Percent conversion of NBMPR to NBMPR-P” value ([1]; cytosol extract with kcn, 4 h) was 11.8 ± 4.8%, the “Percent conversion of NBMPR to NBMPR-P” value ([1]; cytosol extract, 0.25 h) was 2.1 ± 0.5% and the “Percent conversion of NBMPR to nucleobase (NBMP)” value (“Percent conversion … (NBMP)” below) ([1]; cytosol extract, 0.25 h) was 8.0 ± 0.4%. The “Percent conversion of NBMPR to NBMPR-P” value ([1]; cytosol extract, 0.5 h) was 3.2 ± 0.4%, the “Percent conversion … (NBMP)” value ([1]; cytosol extract, 0.5 h) was 7.8 ± 3.7% and the “Percent conversion of NBMPR to NBMPR-P” value ([1]; cytosol extract, 1 h) was 7.8 ± 1.5%. The “Percent conversion … (NBMP)” value ([1]; cytosol extract, 1 h) was 14.8 ± 1.2%, the “Percent conversion of NBMPR to NBMPR-P” value ([1]; cytosol extract, 2 h) was 9.4 ± 1.0% and the “Percent conversion … (NBMP)” value ([1]; cytosol extract, 2 h) was 9.4 ± 2.8%. The “Percent conversion of NBMPR to NBMPR-P” value ([1]; cytosol extract, 4 h) was 15.1 ± 4.4%, the “Percent conversion … (NBMP)” value ([1]; cytosol extract, 4 h) was 10.4 ± 6.2% and the “Number of Plaques” value ([2]; NBMPR 33 μM) was 23 ± 0.7. For the same compound, the “Number of Plaques” value ([2]; NBMPR 100 μM) was 3 ± 1.4, the “Percent conversion of NBMPR to NBMPR-P” value ([3]; strain Ara-A^R, +ATP) was 0% and the “Percent conversion of NBMPR to NBMPR-P” value ([3]; strain Ara-A^R, +PRPP) was 3.8 ± 0.2%. The “Percent conversion of NBMPR to NBMPR-P” value ([3]; strain HGPRT^-, +ATP) was 2.6 ± 1.3%, the “Percent conversion of NBMPR to NBMPR-P” value ([3]; strain HGPRT^-, +PRPP) was 0% and the “Percent conversion of NBMPR to NBMPR-P” value ([3]; strain RH, +ATP) was 0.7 ± 0.2%. The “Percent conversion of NBMPR to NBMPR-P” value ([3]; strain RH, +PRPP) was 4.3 ± 0.3%, the “Percent conversion of NBMPR to NBMPR-P” value ([3]; strain Thx^R-1, +ATP) was 2.0 ± 0.6% and the “Percent conversion of NBMPR to NBMPR-P” value ([3]; strain Thx^R-1, +PRPP) was 0%. The “Percent conversion of NBMPR to NBMPR-P” value ([4]; 0.25 h) was 0%, the “Percent conversion … (NBMP)” value ([4]; 0.25 h) was 0% and the “Percent conversion of NBMPR to NBMPR-P” value ([4]; 0.5 h) was 0%. The “Percent conversion … (NBMP)” value ([4]; 0.5 h) was 0%, the “Percent conversion of NBMPR to NBMPR-P” value ([4]; 1 h) was 0% and the “Percent conversion … (NBMP)” value ([4]; 1 h) was 0%. For the same compound, the “Percent conversion of NBMPR to NBMPR-P” value ([4]; 2 h) was 0%, the “Percent conversion … (NBMP)” value ([4]; 2 h) was 0% and the “Percent conversion of NBMPR to NBMPR-P” value ([4]; 4 h) was 0%. For the same compound, the “Percent conversion … (NBMP)” value ([4]; 4 h) was 0%, the viability at 48 h, 5 µM [5] was 98.8% and the viability at 48 h, 10 µM [5] was 97.1%. For the same compound, the viability at 48 h, 25 µM [5] was 96.3%, the viability at 48 h, 50 µM [5] was 95.4% and the activity at 5 µM [6] was 74.3%. The activity at 10 µM [6] was 55.5%, the activity at 25 µM [6] was 23.1% and the activity at 50 µM [6] was 6.7%.

In the case of `O=[N+]([O-])c1ccc(CSc2ncnc3c2ncn3[C@@H]2O[C@H](COP(=O)(O)O)[C@@H](O)[C@H]2O)cc1` [NBMPR-P, 6-[4-nitrobenzylthio]-9-β-D-ribofuranosyl purine 5'-monophosphate], the “life span of infected mice” value ([7]; increased from 6 days without treatment) is reported as 8 days, the “Survival Day 7” value [7, 9] is reported as 3/3 and the “Survival Day 8” value [7, 9] is reported as 2/3. For the same compound, the “Survival Day 9” value [7, 9] was 0/3, the “Survival Day 6” value ([7]; survivors/total, 100 mg/kg i.p. every 8 hours on Days 0, 2, 4 and 5, untreated 0/3) was 3/3 and the “Effect on host (mammalian) cells, in words” value ([8]; doses up to 100 μM) was “did not affect host cells; also recorded: without affecting mammalian cells”. The “Toxicity to host cells (human fibroblasts), in words” value ([8]; therapeutic doses (5-50 μM tested)) was “no significant toxic effect”, the viability at 48 h, 5 µM ([5]; 5 μM, MTT, 48 hours, read-out: percent survival of uninfected human fibroblasts) was 103% and the viability at 48 h, 10 µM ([5]; 10 μM, MTT, 48 hours, read-out: percent survival of uninfected human fibroblasts) was 94.6%. The viability at 48 h, 25 µM ([5]; 25 μM, MTT, 48 hours, read-out: percent survival of uninfected human fibroblasts) was 93.6%, the viability at 48 h, 50 µM ([5]; 50 μM, MTT, 48 hours, read-out: percent survival of uninfected human fibroblasts) was 96.1% and the activity at 5 µM [6] was 75.3%. It also gave an activity at 10 µM [6] of 53.3%, an activity at 25 µM [6] of 21.4% and an activity at 50 µM [6] of 10.2%. The “Effect on T. gondii grown in human fibroblasts, in words” value ([6]; in vitro) was “inhibited; also recorded: kill T. gondii grown in human fibroblasts in a dose dependent manner; also recorded: effectively eliminate T. gondii parasites”.
